Assay results as given in US5446157A, “Boron difluoride compounds useful in photodynamic therapy and production of laser light” (priority 1993, dated 1995).
Where a name gives a salt, the structure may show the parent alone.

Assay: Photostability under irradiation with 250 watt sun lamp
Assay type: physicochemical
Conditions: sun lamp, in M-1cm-1 (unit assumed)
Experimental: In addition, experiments were conducted in order to determine the photostability of the product of Example I. A solution was prepared by mixing 0.1 g of the product with 50 ml of dichloromethane solvent. The solution was placed in a 100 ml round bottom flask and irradiated with light from a sun lamp (250 watts at a distance of approximately 8 inches from the flask). […] However, another solution was made by combining 0.1 g of product in 250 ml of CH3 OH and 10 ml of CH2 Cl2. Addition of the CH2 Cl2 was undertaken to obtain complete dissolution. The solution was placed in a […] and irradiated as described above. […] Thus, the use of different solvents will cause a variation in both the character and duration of fluorescence.
In addition, a further test was conducted in order to determine the photostability of the product. Specifically, 2.0 mg of the product in a 100 ml round bottom flask was dissolved in 50 ml of H2 O. The solution was then irradiated by light from a 250 watt sun lamp placed approximately 8 inches from the flask. UV spectral data was recorded periodically as shown below in Table III.

CC1=C(S(=O)(=O)O)C(C)=[N+]2C1=C(C)c1c(C)c(S(=O)(=O)O)c(C)n1[B-]2(F)F [PMPDS-BF2, Disodium salt of 4,4-difluoro-1,3,5,7,8-pentamethyl-4-bora-3a,4a-diaza-s-indacene-2,6-disulfonic acid monohydrate]
ε492 (H2O) (2.0 mg in 50 ml H2O, 0 hours): 76,995.38 | ε492 (H2O) (H2O, 0.5 hours): 76,755.22 | ε492 (H2O) (H2O, 1.0 hours): 75,556.52 | ε492 (H2O) (H2O, 1.5 hours): 76,755.52 | ε492 (H2O) (H2O, 2.5 hours): 75,316.35 | ε492 (H2O) (H2O, 3.5 hours): 73,757.26 | ε492 (H2O) (H2O, 6.0 hours): 69,799.55 | ε492 (H2O) (H2O, 20.0 hours): 52,049.62 | ε492 (H2O) (H2O, 21.5 hours): 51,569.90 | ε492 (H2O) (H2O, 23.5 hours): 46,173.05 | ε492 (H2O) (H2O, 25.5 hours): 45,573.40 | ε492 (H2O) (H2O, 28.0 hours): 41,016.06 | ε492 (H2O) (H2O, 30.5 hours): 37,178.46 | ε492 (H2O) (H2O, 44.0 hours): 20,388.19 | ε492 (H2O) (H2O, 50.0 hours): 13,192.355 | ε492 (H2O) (H2O, 52.5 hours): 599.653
